Measured values taken from patent US20190210996A1, “NOVEL COMPOUNDS” (GLAXOSMITHKLINE INTELLECTUAL PROPERTY DEVELOPMENT LIMITED, priority 2016, published 2019).

Assays:
Format in all cases: cell-based
[1] = molecular target: T1, RPS6KA1 (Homo sapiens, UniProt Q15418); assay: Expression proteomics in THP-1 cells: RPS6KA1 protein level; conditions: RPS6KA1, THP-1 cells
T1 construct: endogenous in cells; host or cells: THP-1
Experimental: (§1) THP-1 cells were seeded at a concentration of 3×10^6 cells in T175 flasks with 60 mL growth medium (RPMI1640+10% FBS). […] of a 10× compound solution prepared in growth medium (DMSO), CEREBLON_PROTAC) was added and the cells were treated for the indicated time points (6 or 24 h) at 37° C., 5% CO2. For harvesting the cells were collected into falcon tubes on ice, centrifuged and washed twice in cold PBS (Life technologies). After the last washing step the supernatant was removed and the pellets were snap-frozen in liquid N2 and stored at −80° C. and lysed in 2% SDS for 3 min at 95° C. in a thermomixer (Thermo Fisher Scientific), followed by digestion of DNA with Benzonase at 37° C. for 1.5 h. Lysate was cleared by centrifugation an protein concentration in supernatant was determined by BCA assay.
(§2) Leukemia 25, 89-100 (2011).
(§3) Samples were dried in vacuo and resuspended in 0.05% trifluoroacetic acid in water. Of the sample, 50% was injected into an Ultimate3000 nanoRLSC (Dionex, Sunnyvale, Calif.) coupled to a Q Exactive HF (Thermo Fisher Scientific). Peptides were trapped on a 5 mm×300 μm C18 column (Pepmap100, 5 μm, 300 Å, Thermo Fisher Scientific) in water with 0.05% TFA at 60° C. Separation was performed on custom 50 cm×[…] (ID) reversed-phase columns (Reprosil) at 55° C. Gradient elution was performed from 2% acetonitrile to 40% acetonitrile in 0.1% formic acid and 3.5% DMSO over 2 hours. Samples were online injected into Q-Exactive HF mass spectrometers operating with a data-dependent top 10 method. MS spectra were acquired by using 60.000 resolution and an ion target of 3×10^6. Higher energy collisional dissociation (HCD) scans were performed with 35% NCE at 30.000 resolution (at m/z 200), and the ion target settings was set to 2×10^5 so as to avoid coalescence (Werner, T. et al. Ion Coalescence of Neutron Encoded TMT 10-Plex Reporter Ions. Anal. Chem. 86, 3594-3601 (2014).
(§4) The first search was performed with 30 parts per million mass tolerance for peptide precursors and 30 mD (HCD) mass tolerance for fragment ions followed by a final search using recalibrated data with a 10 parts per million mass tolerance for peptide precursors and 20 mD (HCD) mass tolerance for fragment ions. Carbamidomethylation of cysteine residues and TMT modification of lysine residues were set as fixed modifications and methionine oxidation, and N-terminal acetylation of proteins and TMT modification of peptide N-termini were set as variable modifications. […]
(§5) Nat Biotech 29, 255-265 (2011). this measure is referred to as ion area Savitski, M. M. et al. Delayed Fragmentation and Optimized Isolation Width Settings for Improvement of Protein Identification and Accuracy of Isobaric Mass Tag Quantification on Orbitrap-Type Mass Spectrometers. […]

[2] = molecular target: T2, RPS6KA3 (Homo sapiens, UniProt P51812); assay: Expression proteomics in THP-1 cells: RPS6KA3 protein level; conditions: RPS6KA3, THP-1 cells
T2 construct: endogenous in cells; host or cells: THP-1
Experimental: as §1, §2, §3, §4, §5

[3] = molecular target: T3, AURKA (Homo sapiens, UniProt O14965); assay: Expression proteomics in THP-1 cells: AURKA protein level
T3 construct: endogenous in cells; host or cells: THP-1
T3 sequence (O14965 1-403): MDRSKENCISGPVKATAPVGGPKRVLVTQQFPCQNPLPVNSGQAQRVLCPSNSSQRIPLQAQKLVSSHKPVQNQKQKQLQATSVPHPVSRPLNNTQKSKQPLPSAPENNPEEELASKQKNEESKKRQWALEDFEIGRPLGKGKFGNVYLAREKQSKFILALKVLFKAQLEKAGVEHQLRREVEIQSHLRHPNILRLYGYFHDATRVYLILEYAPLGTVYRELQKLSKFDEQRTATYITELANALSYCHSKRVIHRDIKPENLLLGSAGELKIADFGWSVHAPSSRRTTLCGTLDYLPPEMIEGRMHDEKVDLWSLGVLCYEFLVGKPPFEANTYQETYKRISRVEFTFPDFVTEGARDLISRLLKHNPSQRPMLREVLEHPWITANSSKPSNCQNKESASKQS
Experimental: as §1, §2, §3, §4, §5

[4] = molecular target: T4, PTK2 (Homo sapiens, UniProt Q05397); assay: Expression proteomics in THP-1 cells: PTK2 protein level; conditions: PTK2, THP-1 cells
T4 construct: endogenous in cells; host or cells: THP-1
Experimental: as §1, §2, §3, §4, §5

[5] = molecular target: T5, PTK2B (Homo sapiens, UniProt Q14289); assay: Expression proteomics in THP-1 cells: PTK2B protein level
T5 construct: endogenous in cells; host or cells: THP-1
Experimental: as §1, §2, §3, §4, §5

T2 sequence (P51812 whole entry): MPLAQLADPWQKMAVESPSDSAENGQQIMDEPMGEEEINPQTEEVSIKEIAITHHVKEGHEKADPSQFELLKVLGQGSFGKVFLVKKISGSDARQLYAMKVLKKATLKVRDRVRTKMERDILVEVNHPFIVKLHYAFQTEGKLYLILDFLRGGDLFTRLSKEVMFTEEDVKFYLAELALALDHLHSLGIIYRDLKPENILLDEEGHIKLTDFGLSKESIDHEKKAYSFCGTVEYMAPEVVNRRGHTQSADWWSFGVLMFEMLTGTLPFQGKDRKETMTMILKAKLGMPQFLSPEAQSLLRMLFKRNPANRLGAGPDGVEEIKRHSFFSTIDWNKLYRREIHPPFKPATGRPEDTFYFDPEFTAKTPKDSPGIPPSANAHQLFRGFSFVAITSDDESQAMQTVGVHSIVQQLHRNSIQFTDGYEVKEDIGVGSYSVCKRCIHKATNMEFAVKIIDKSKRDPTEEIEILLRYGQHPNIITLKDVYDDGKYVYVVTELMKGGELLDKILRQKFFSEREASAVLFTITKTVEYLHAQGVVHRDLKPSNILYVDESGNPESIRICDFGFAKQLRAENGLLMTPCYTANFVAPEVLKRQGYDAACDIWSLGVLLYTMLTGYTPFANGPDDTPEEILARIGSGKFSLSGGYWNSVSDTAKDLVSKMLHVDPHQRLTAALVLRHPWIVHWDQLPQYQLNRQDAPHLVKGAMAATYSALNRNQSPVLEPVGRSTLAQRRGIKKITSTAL
T1 sequence (Q15418 whole entry): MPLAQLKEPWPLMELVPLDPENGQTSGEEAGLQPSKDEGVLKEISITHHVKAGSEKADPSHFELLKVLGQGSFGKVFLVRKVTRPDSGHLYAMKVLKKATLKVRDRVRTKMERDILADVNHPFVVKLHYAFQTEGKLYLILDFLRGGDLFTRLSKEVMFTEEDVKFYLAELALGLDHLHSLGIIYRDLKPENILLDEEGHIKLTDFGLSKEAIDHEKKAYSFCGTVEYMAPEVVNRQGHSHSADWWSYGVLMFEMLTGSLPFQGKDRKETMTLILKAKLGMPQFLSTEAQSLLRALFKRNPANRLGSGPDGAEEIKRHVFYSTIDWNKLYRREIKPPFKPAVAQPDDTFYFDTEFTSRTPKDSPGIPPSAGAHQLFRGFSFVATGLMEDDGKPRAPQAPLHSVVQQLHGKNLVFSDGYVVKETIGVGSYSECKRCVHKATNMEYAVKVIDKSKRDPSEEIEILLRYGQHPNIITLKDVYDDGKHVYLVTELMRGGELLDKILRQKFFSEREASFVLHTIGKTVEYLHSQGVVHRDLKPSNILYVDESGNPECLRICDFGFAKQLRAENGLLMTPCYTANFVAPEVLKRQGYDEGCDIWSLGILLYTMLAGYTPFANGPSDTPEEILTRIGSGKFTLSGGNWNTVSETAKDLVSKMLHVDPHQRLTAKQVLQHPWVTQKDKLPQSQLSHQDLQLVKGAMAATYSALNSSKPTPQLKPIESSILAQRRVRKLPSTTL
T4 sequence (Q05397 whole entry): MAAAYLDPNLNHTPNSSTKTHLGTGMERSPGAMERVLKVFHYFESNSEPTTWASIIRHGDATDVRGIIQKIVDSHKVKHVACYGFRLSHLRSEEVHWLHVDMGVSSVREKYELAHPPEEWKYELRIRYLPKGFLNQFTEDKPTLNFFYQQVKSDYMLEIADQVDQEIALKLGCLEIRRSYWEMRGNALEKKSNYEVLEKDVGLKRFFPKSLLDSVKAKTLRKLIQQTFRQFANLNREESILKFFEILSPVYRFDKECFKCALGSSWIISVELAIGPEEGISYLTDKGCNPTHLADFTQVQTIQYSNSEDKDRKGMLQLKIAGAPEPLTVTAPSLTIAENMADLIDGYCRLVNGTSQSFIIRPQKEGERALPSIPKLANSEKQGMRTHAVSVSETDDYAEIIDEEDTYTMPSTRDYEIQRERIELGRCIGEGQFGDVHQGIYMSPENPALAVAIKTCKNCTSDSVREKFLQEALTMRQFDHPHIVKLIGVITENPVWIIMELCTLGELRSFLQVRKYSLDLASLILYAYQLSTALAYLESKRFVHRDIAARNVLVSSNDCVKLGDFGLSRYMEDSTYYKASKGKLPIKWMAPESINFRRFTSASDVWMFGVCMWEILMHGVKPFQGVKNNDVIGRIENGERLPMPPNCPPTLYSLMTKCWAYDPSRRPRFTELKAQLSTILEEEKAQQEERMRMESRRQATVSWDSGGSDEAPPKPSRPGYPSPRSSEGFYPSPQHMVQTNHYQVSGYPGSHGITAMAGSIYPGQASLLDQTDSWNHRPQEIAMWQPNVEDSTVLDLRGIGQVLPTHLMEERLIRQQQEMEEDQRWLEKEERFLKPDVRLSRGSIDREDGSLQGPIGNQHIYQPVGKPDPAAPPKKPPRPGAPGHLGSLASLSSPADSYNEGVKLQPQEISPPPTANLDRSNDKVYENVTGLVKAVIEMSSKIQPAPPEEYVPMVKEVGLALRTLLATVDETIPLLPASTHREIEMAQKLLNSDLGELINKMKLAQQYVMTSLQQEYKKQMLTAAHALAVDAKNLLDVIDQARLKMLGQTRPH
T5 sequence (Q14289 whole entry): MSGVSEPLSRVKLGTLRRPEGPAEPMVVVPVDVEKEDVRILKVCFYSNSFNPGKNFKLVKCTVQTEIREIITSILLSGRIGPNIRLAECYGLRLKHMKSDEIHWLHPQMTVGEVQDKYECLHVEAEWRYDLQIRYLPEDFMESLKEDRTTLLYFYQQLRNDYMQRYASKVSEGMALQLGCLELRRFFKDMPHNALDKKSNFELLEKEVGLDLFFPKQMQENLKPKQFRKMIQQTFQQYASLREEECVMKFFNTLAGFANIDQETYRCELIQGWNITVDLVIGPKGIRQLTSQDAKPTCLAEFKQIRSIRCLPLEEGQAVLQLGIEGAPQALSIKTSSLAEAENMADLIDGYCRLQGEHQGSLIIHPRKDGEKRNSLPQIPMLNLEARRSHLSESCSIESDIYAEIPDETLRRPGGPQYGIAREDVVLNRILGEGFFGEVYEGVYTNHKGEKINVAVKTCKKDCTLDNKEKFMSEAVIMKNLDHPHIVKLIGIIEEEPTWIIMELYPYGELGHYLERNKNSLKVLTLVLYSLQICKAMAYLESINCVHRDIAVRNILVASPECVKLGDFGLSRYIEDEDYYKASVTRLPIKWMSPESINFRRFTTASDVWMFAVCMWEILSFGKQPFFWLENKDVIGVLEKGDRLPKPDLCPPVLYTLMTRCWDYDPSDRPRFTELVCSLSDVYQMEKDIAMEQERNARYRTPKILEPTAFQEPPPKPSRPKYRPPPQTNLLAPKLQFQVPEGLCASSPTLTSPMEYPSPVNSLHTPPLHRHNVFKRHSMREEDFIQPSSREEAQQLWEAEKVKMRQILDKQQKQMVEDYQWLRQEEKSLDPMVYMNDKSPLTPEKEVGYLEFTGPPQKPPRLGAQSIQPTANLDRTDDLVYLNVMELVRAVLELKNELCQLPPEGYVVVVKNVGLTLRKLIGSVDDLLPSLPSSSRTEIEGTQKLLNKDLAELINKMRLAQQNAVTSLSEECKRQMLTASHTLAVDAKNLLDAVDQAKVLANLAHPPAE

CNC(=O)c1ccccc1Nc1nc(Nc2ccc(N3CCN(CCOCCOCCOCCOCC(=O)Nc4cccc5c4CN(C4CCC(=O)NC4=O)C5=O)CC3)cc2)ncc1Cl.O=CO (centres unmarked) [CEREBLON_PROTAC, 14-(4-(4-((5-Chloro-4-((2-(methylcarbamoyl)phenyl)amino)pyrimidin-2-yl)amino)phenyl)piperazin-1-yl)-N-(2-(2,6-dioxopiperidin-3-yl)-1-oxoisoindolin-4-yl)-3,6,9,12-tetraoxatetradecan-1-amide formate]
log2 rel. fc. to vehicle control ([1]; 24 h 0.1 μM, n = 1): −1.65
log2 rel. fc. to vehicle control ([1]; 24 h 0.1 μM, n = 2): −1.55
log2 rel. fc. to vehicle control ([1]; 24 h 1 μM, n = 1): −1.86
log2 rel. fc. to vehicle control ([1]; 24 h 1 μM, n = 2): −1.93
log2 rel. fc. to vehicle control ([2]; 24 h 0.1 μM, n = 1): −0.74
log2 rel. fc. to vehicle control ([2]; 24 h 0.1 μM, n = 2): −0.72
log2 rel. fc. to vehicle control ([2]; 24 h 1 μM, n = 1): −1.12
log2 rel. fc. to vehicle control ([2]; 24 h 1 μM, n = 2): −1.11
log2 rel. fc. to vehicle control ([3]; 24 h 0.1 μM, n = 1): −1.45
log2 rel. fc. to vehicle control ([3]; 24 h 0.1 μM, n = 2): −1.00
log2 rel. fc. to vehicle control ([3]; 24 h 1 μM, n = 1): −2.10
log2 rel. fc. to vehicle control ([3]; 24 h 1 μM, n = 2): −1.93
log2 rel. fc. to vehicle control ([4]; 24 h 0.1 μM, n = 1): −2.29
log2 rel. fc. to vehicle control ([4]; 24 h 0.1 μM, n = 2): −2.92
log2 rel. fc. to vehicle control ([4]; 24 h 1 μM, n = 1): −2.42
log2 rel. fc. to vehicle control ([4]; 24 h 1 μM, n = 2): −2.20
log2 rel. fc. to vehicle control ([5]; 24 h 0.1 μM, n = 1): −2.34
log2 rel. fc. to vehicle control ([5]; 24 h 0.1 μM, n = 2): −2.50
log2 rel. fc. to vehicle control ([5]; 24 h 1 μM, n = 1): −2.09
log2 rel. fc. to vehicle control ([5]; 24 h 1 μM, n = 2): −2.18
